For 30 compounds, IC50 results are on record in US20260209214A1, “LSD1 MODULATORS” (RECURSION PHARMACEUTICALS, INC., priority 2022, published 2026).

Where a name gives a salt, the structure may show the parent alone.

The target in the assay is Recombinant human LSD1 (Homo sapiens, UniProt O60341). As to the kind of experiment: LSD1 inhibition assay (HTRF LSD1 Histone H3K4 mono-demethylation assay, me1->me0). The assay is classed as biochemical. Conditions: 20 nM recombinant human LSD1, 95 nM H3K4(me1) biotinylated peptide, 15 min preincubation, 60 min at 25° C., read-out: LSD1 inhibition IC50 (nM range). The procedure: LSD1 biochemical activity was measured using the HTRF® LSD1 Histone H3K4 mono-demethylation assay (me1->me0). Briefly, the enzymatic buffer was prepared by addition of 50 mM Tris-HCl (Sigma cat #T2663-IL), 50 mM NaCl (ThermoFisher cat #AM9759) and 0.01% Tween 20 (ThermoFisher cat #J20605.AP) in distilled water (final pH 8.5). This buffer was supplemented with 10 μM FAD (Fisher Scientific cat #11411838) and 1 mM DTT (Sigma cat #D0632). For the assay, H3K4(me1) biotinylated peptide substrate (Anaspec, cat #64355) was added to provide a final assay concentration of 95 nM. The streptavidin-XL665 (Cisbio cat #610SAXLA) and H3K4 me0-Eu(K) antibody-cryptate (Cisbio, cat #61 KAOKAD) detection reagents were mixed according to the manufacturer's instructions. Test compounds were diluted in DMSO in a series of 10 semi-log step doses; 10 nL of each compound dose were dispensed in 384 well plates. Recombinant human LSD1 was diluted into enzymatic buffer to provide a final assay concentration of 20 nM and added to the tested compounds for 15 minutes. The reaction was started by addition of the substrate and incubated at 25° C. for 60 minutes. The detection reagents were added, and the plate was incubated in the dark for 90 minutes. Fluorescence was measured on an Envision 2103 plate reader with optical setup for […] in the HTRF mode. The ratio of acceptor and donor emission signals was calculated for each well. Percent inhibition values were calculated from the HTRF ratios at different doses and fitted to a 4-parameter logistic curve to determine IC50 values. […]
With `CN[C@@H]1C[C@@H]2CC[C@H]1N2Cc1cccc(-c2ccc(C#N)c(F)c2)c1-c1ccns1` (single isomer, unassigned) [Example 190], the IC50 was under 10 nM.

As to `N#Cc1ccc(-c2cc(CC3CNCCO3)ccc2N2CCn3nc(C4CC4)cc3C2)cc1F` (stereo not drawn) [Example 97, 2′-{2-cyclopropyl-4H,5H,6H,7H-pyrazolo[1,5-a]pyrazin-5-yl}-3-fluoro-5′-[(morpholin-2-yl)methyl]-[1,1′-biphenyl]-4-carbonitrile], the IC50 is over 1000 nM.

With `N#Cc1ccc(-c2cc(CC3CNCCO3)ccc2OC[C@@H]2CCCOC2)cc1F` (stereo partly drawn) [Example 72, 3-fluoro-5′-[(morpholin-2-yl)methyl]-2′-{[(3R)-oxa-3-yl]methoxy}-[1,1′-biphenyl]-4-carbonitrile], the IC50 lay in the range of 100 to 1000 nM.

On to `N#Cc1ccc(-c2cccc(CC3CCNC3)c2-c2ccns2)cc1F` (stereo not drawn) [Example 109, 2-fluoro-4-[2-isothiazol-5-yl-3-(pyrrolidin-3-ylmethyl)phenyl]benzonitrile; hydrochloride], for which the 50% inhibitory concentration (IC50) was under 10 nM.

Take `N#Cc1ccc(-c2cccc(CC3CNCCO3)c2-c2ccncc2)cc1F` (stereo not drawn) [Example 148, 3-fluoro-3′-[(morpholin-2-yl)methyl]-2′-(pyridin-4-yl)-[1,1′-biphenyl]-4-carbonitile]: the IC50 lay within 100 to 1000 nM.

Turning to `CN(CC1CC1)c1ccc(CN2[C@@H]3CC[C@H]2[C@@H](N)C3)cc1-c1ccc(C#N)c(F)c1` (racemic) [Example 254, 5'-{[(1S,2S,4R)-2-amino-7-azabicyclo[2.2.1]heptan-7-yl]methyl}-2'-[(cyclopropylmethyl)(methyl)amino]-3-fluoro-[1,1'-biphenyl]-4-carbonitrile], the IC50 lay in the range of 10 to 25 nM.

`N#Cc1ccc(-c2cccc(CC3CNCCO3)c2-c2ncco2)cc1F` (stereo not drawn) [Example 65, 3-fluoro-3′-[(morpholin-2-yl)methyl]-2′-(1,3-oxazol-2-yl)-[1,1′-biphenyl]-4-carbonitrile]: the IC50 is over 1000 nM.

For the compound `CC(C)Oc1c(CN2[C@@H]3CC[C@H]2[C@@H](N)C3)cccc1-c1ccc(C#N)c(F)c1` (racemic) [Example 213], the IC50 is 25 to 100 nM.

Regarding `CN1C[C@@H]2C[C@H]1CN2Cc1cc(-c2ccc(C#N)c(F)c2)cc(N2CCCC2)c1` (stereo in doubt) [Example 300, 2-fluoro-4-[3-[[(1S,4S)-5-methyl-2,5-diazabicyclo[2.2.1]heptan-2-yl]methyl]-5-pyrrolidin-1-yl-phenyl]benzonitrile], the IC50 fell in the range of 100 to 1000 nM.

Consider `COc1ccc(-c2ccc(CC3CNCCO3)cc2-c2ccc(C#N)c(F)c2)nc1` (stereo not drawn) [Example 133, 3-fluoro-2′-(5-methoxypyridin-2-yl)-5′-[(morpholin-2-yl)methyl]-[1,1′-biphenyl]-4-carbonitrile], for which the IC50 was 100 to 1000 nM.

`N#Cc1ccc(-c2cc(CC3CNCCO3)ccc2C2CCCO2)cc1F` (stereo not drawn) [Example 145, 3-fluoro-5′-[(morpholin-2-yl)methyl]-2′-(oxolan-2-yl)-[1,1′-biphenyl]-4-carbonitrile]: the IC50 is over 1000 nM.

`CC1CC1c1c(CN2[C@@H]3CC[C@H]2[C@@H](N)C3)cccc1-c1ccc(C#N)c(F)c1` (mixture of isomers) [Example 247, 3'-{[(1S,2S,4R)-2-amino-7-azabicyclo[2.2.1]heptan-7-yl]methyl}-3-fluoro-2'-(2-methylcyclopropyl)-[1,1'-biphenyl]-4-carbonitrile]: the IC50 was 25 to 100 nM.

For `N#Cc1ccc(-c2cccc(COC3CCNC3)c2-c2cnco2)cc1F` (stereo not drawn) [Example 154, 3-fluoro-2′-(1,3-oxazol-5-yl)-3′-[(pyrrolidin-3-yloxy)methyl]-[1,1′-biphenyl]-4-carbonitrile], the IC50 lay within 10 to 25 nM.

For `COCC1CCN(c2ccc(CC3CNCCCO3)cc2-c2ccc(C#N)c(F)c2)CC1` (stereo not drawn) [Example 74, 3-fluoro-2′-[4-(methoxymethyl)piperidin-1-yl]-5′-[(1,4-oxazepan-2-yl)methyl]-[1,1′-biphenyl]-4-carbonitrile], the IC50 is 10 to 25 nM.

With `Cc1ncoc1-c1c(CC2CNCCO2)cccc1-c1ccc(C#N)c(F)c1` (stereo not drawn) [Example 51, 3-fluoro-2′-(4-methyl-1,3-oxazol-5-yl)-3′-[(morpholin-2-yl)methyl]-[1,1′-biphenyl]-4-carbonitrile], the IC50 fell in the range of 25 to 100 nM.

Turning to `N#Cc1ccc(-c2cc(CC3CNCCO3)ccc2-c2ccn3cnnc3c2)cc1F` (stereo not drawn) [Example 157, 3-fluoro-5′-[(morpholin-2-yl)methyl]-2′-{[1,2,4]triazolo[4,3-a]pyridin-7-yl}-[1,1′-biphenyl]-4-carbonitrile], the IC50 was over 1000 nM.

With `COCCc1ccc(-c2ccc(CC3CNCCO3)cc2-c2ccc(C#N)c(F)c2)c(F)c1` (stereo not drawn) [Example 83, 3-fluoro-2′-[2-fluoro-4-(2-methoxyethyl)phenyl]-5′-[(morpholin-2-yl)methyl]-[1,1′-biphenyl]-4-carbonitrile], the IC50 is 25 to 100 nM.

On to `N#Cc1ccc(-c2cc(CN3[C@@H]4CC[C@H]3[C@@H](N)C4)ccc2N2CCCCC2)cc1F` (racemic) [Example 255, 5'-{[(1S,2S,4R)-2-amino-7-azabicyclo[2.2.1]heptan-7-yl]methyl}-3-fluoro-2'-(piperidin-1-yl)-[1,1'-biphenyl]-4-carbonitrile], for which the IC50 is 10 to 25 nM.

On to `N#Cc1ccc(-c2cccc(CC3CNCCO3)c2C2CC2)cc1F` (stereo not drawn) [Example 42, 2′-cyclopropyl-3-fluoro-3′-[(morpholin-2-yl)methyl]-[1,1′-biphenyl]-4-carbonitrile], for which the IC50 lay within 100 to 1000 nM.

With `N#Cc1ccc(-c2cccc(CC3CCOCC3)c2-c2ccns2)cc1F` [Example 111, 3-fluoro-3′-[(oxan-4-yl)methyl]-2′-(1,2-thiazol-5-yl)-[1,1′-biphenyl]-4-carbonitrile], the IC50 lay in the range of 25 to 100 nM.

Regarding `N#Cc1ccc(-c2cccc(C[C@@H]3CNCCO3)c2-c2ocnc2F)cc1` [Example 3, 2′-(4-fluoro-1,3-oxazol-5-yl)-3′-{[(2R)-orpholin-2-yl]methyl}-[1,1′-biphenyl]-4-carbonitrile], the IC50 lay within 10 to 25 nM.

For the compound `N#Cc1ccc(-c2cc(CC3CNCCO3)ccc2COc2cccnc2)cc1F` (stereo not drawn) [Example 106, 3-fluoro-5′-[(morpholin-2-yl)methyl]-2′-[(pyridin-3-yloxy)methyl]-[1,1′-biphenyl]-4-carbonitrile], the IC50 was 100 to 1000 nM.

Turning to `N#Cc1ccc(-c2cccc(N3CCC(N)CC3)c2-c2ccns2)cc1F` [Example 110, 3'-(4-aminopiperidin-1-yl)-3-fluoro-2'-(1,2-thiazol-5-yl)-[1,1'-biphenyl]-4-carbonitrile], the IC50 fell in the range of 10 to 25 nM.

For the compound `COC1CCN(c2ccc(CN3[C@@H]4CC[C@H]3[C@@H](N)C4)cc2-c2ccc(C#N)c(F)c2)CC1` (racemic) [Example 260, 5'-{[(1S,2S,4R)-2-amino-7-azabicyclo[2.2.1]heptan-7-yl]methyl}-3-fluoro-2'-(4-methoxypiperidin-1-yl)-[1,1'-biphenyl]-4-carbonitrile], the IC50 was in the range of 10 to 25 nM.

As to `COc1ccc(-c2ccc(CN3[C@@H]4CC[C@H]3[C@@H](N)C4)cc2-c2ccc(C#N)c(F)c2)cc1F` (racemic) [Example 222, 4-(4-{[(1S,2S,4R)-2-amino-7-azabicyclo[2.2.1]heptan-7-yl]methyl}-3'-fluoro-4'-methoxy-[1,1'-biphenyl]-2-yl)-2-fluorobenzonitrile], the half-inhibitory concentration (IC50) lay within 10 to 25 nM.

Consider `N#Cc1ccc(-c2cc(CN3[C@@H]4CC[C@H]3[C@@H](N)C4)ccc2-c2ccns2)cc1F` (racemic) [Example 314, 5'-{[(1S,2S,4R)-2-amino-7-azabicyclo[2.2.1]heptan-7-yl]methyl}-3-fluoro-2'-(1,2-thiazol-5-yl)-[1,1'-biphenyl]-4-carbonitrile], for which the IC50 lay within 10 to 25 nM.

As to `N#Cc1ccc(-c2cccc(CN3CCC4CC3CN4)c2C2CC2)cc1F` (stereo not drawn) [Example 199, 2'-cyclopropyl-3'-({2,6-diazabicyclo[3.2.1]octan-2-yl}methyl)-3-fluoro-[1,1'-biphenyl]-4-carbonitrile], the IC50 was in the range of 10 to 25 nM.

Take `COc1ccc(-c2ccc(CC3CNCCO3)cc2-c2ccc(C#N)c(F)c2)cn1` (stereo not drawn) [Example 80, 3-fluoro-2′-(6-methoxypyridin-3-yl)-5′-[(morpholin-2-yl)methyl]-[1,1′-biphenyl]-4-carbonitrile]: the IC50 was in the range of 100 to 1000 nM.

Consider `N#Cc1ccc(-c2cccc(CN3CC[C@@H]4NCC[C@@H]43)c2C2CC2)cc1F` [Example 273, 3'-{[(3aS,6aS)-octahydropyrrolo[3,2-b]pyrrol-1-yl]methyl}-2'-cyclopropyl-3-fluoro-[1,1'-biphenyl]-4-carbonitrile], for which the IC50 was in the range of 25 to 100 nM.

Consider `CC(C)C1(O)CCN(c2ccc(CC3CNCCO3)cc2-c2ccc(C#N)c(F)c2)CC1` (stereo not drawn) [Example 79, 3-fluoro-2′-[4-hydroxy-4-(propan-2-yl)piperidin-1-yl]-5′-[(morpholin-2-yl)methyl]-[1,1′-biphenyl]-4-carbonitrile], for which the IC50 was 10 to 25 nM.
